Literature values as cited in patent US8629128B2, “Vitamin formulation” (priority 2005, dated 2014).

What was measured:
[1] = system: normal and malignant keratinocytes; conditions: normal and malignant keratinocytes in culture
[2] = oxidizing agents and sunlight

## C=C1/C(=C\C=C2/CCC[C@]3(C)C([C@H](C)/C=C/[C@@H](O)C4CC4)CC[C@@H]23)C[C@@H](O)C[C@@H]1O (stereo partly drawn) [Calcipotriene, (5Z,7E,22E,24S)-24-cyclopropyl-9,10-secochola-5,7,10(19), 22 tetraene-1α,3β,24-triol]
[1]
  induction of differentiation of keratinocytes: induces the differentiation
  inhibition of proliferation of keratinocytes: inhibits proliferation

## CC1=C(/C=C/C(C)=C/C=C/C(C)=C/C(=O)O)C(C)(C)CCC1 [Tretinoin, (all-E)-3,7-dimethyl-9-(2,6,6-trimethyl-1-cyclohexen-1-yl)-2,4,6,8-nonatetraenoic acid]
[2]
  stability of tretinoin: unstable in the presence of oxidizing agents and sunlight

## C=C1/C(=C\C=C2/CCC[C@]3(C)[C@@H]([C@H](C)CCCC(C)(C)O)CC[C@@H]23)C[C@@H](O)C[C@@H]1O [calcitriol, 1,25-dihydroxy Vitamin D3]
Calcium metabolism
  effect on calcium metabolism: potent effect on calcium metabolism
